Experimental data reported in ChEMBL document CHEMBL1140451, “Inhibitory effect of synthetic C-C biflavones on various phospholipase A(2)s activity” (Bioorg Med Chem, 2007).

Key:
Assay type in all cases: cell-based
Phospholipase A2 = Phospholipase A2 (Rattus norvegicus, UniProt P04055); experiment: Inhibition of rat cloned sPLA2-1B expressed in HEK293 cells
[1] = Inhibition of human cloned sPLA2-5 expressed in HEK293 cells
[2] = molecular target: T1, Group 10 secretory phospholipase A2 (Homo sapiens, UniProt O15496); experiment: Inhibition of human cloned sPLA2-10 expressed in HEK293 cells
T1 sequence (O15496 whole entry): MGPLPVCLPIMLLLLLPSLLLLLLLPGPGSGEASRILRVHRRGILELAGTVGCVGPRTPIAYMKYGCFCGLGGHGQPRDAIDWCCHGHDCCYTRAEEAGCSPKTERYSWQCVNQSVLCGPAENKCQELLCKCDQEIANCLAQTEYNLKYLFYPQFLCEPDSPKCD

[3] = molecular target: T2, Cytosolic phospholipase A2 (Homo sapiens, UniProt P47712); experiment: Inhibition of human cloned cPLA2 expressed in HEK293 cells
T2 sequence (P47712 whole entry): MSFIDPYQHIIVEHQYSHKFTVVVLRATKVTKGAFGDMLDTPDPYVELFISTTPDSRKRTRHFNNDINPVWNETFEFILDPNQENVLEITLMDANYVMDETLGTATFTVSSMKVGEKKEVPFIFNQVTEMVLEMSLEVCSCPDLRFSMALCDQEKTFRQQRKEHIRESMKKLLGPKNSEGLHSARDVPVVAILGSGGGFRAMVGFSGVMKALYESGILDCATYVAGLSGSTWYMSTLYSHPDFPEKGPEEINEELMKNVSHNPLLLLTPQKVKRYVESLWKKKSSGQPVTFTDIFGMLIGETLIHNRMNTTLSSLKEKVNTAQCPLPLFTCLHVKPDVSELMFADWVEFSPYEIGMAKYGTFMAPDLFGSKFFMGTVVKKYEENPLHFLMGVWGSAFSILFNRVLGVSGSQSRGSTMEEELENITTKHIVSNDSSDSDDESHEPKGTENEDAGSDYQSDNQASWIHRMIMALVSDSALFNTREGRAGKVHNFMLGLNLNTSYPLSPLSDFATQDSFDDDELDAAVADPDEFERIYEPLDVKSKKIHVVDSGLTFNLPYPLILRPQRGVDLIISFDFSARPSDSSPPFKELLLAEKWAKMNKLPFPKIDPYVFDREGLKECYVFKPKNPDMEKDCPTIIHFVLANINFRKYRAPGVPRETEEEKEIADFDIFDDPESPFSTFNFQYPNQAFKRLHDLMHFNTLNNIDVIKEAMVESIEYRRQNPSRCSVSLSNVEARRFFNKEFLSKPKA

Sequence of Phospholipase A2 (P04055 whole entry): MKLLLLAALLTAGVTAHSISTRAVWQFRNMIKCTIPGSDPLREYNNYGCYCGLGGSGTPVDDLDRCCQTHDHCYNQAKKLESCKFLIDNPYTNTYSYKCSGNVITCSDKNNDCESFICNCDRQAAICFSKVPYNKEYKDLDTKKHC

| SMILES | IC50 (Phospholipase A2) [µM] | IC50 [1] [µM] | IC50 [2] [µM] | IC50 [3] [µM] |
| --- | --- | --- | --- | --- |
| O=c1cc(-c2ccc(-c3ccc(-c4cc(=O)c5ccccc5o4)cc3)cc2)oc2ccccc12 | > 100 | 8.7 | > 100 | 6 |
| O=c1cc(-c2ccc(-c3cccc(-c4cc(=O)c5ccccc5o4)c3)cc2)oc2ccccc12 | > 100 | 23.9 | > 100 | 38.7 |
| O=c1cc(-c2cccc(-c3ccc4oc(-c5ccccc5)cc(=O)c4c3)c2)oc2ccccc12 | > 100 | 12.8 | 27.6 | 16.8 |
| O=c1cc(-c2ccccc2)oc2ccc(-c3ccc4oc(-c5ccccc5)cc(=O)c4c3)cc12 | > 100 | 50 | > 100 | 48.1 |
| O=c1cc(-c2ccc(Oc3cc(-c4cc(=O)c5c(O)cc(O)cc5o4)ccc3O)cc2)oc2cc(O)cc(O)c12 [OCHNAFLAVONE] | > 100 | 17.6 | > 100 | > 100 |

The next lines start with the values.

| IC50 (Phospholipase A2) [µM] | IC50 [1] [µM] | IC50 [2] [µM] | IC50 [3] [µM] | SMILES |
| --- | --- | --- | --- | --- |
| > 100 | 6.5 | > 100 | 8.42 | O=c1cc(-c2ccc(-c3c(-c4ccccc4)oc4ccccc4c3=O)cc2)oc2ccccc12 |
| > 100 | 10.8 | > 100 | 11.9 | O=c1cc(-c2ccc(-c3ccc4oc(-c5ccccc5)cc(=O)c4c3)cc2)oc2ccccc12 |
| > 100 | 41.8 | > 100 | > 100 | O=c1cc(-c2ccc(O)c(-c3c(O)cc(O)c4c(=O)cc(-c5ccc(O)cc5)oc34)c2)oc2cc(O)cc(O)c12 [AMENTOFLAVONE] |
